Test results taken from the NIST ThermoML archive (doi:10.1021/je200030k).
± gives the expanded uncertainty stated by the source.

What was measured:
[1] = xn = mol fraction of the nth substance listed; settings: 101 kPa, Liquid, Vibrating tube method
[2] = refractive index (Na D-line) (dimensionless); xn = mol fraction of the nth substance listed; settings: 101 kPa, Liquid, Standard Abbe refractometry

CCCCn1cc[n+](C)c1.NCC(=O)[O-] [1-butyl-3-methylimidazolium glycinate] + CCCCO
Settings	mass density, [1] [kg/m3]	refractive index, [2]
298.15 K, x1 = 0.0972	885.2 ± 1	1.418 ± 0.002
298.15 K, x1 = 0.2125	962.5 ± 1	1.438 ± 0.002
298.15 K, x1 = 0.3041	1014.1 ± 1	1.454 ± 0.002
298.15 K, x1 = 0.3849	1054.3 ± 1	1.465 ± 0.002
298.15 K, x1 = 0.4929	1101.4 ± 1	1.478 ± 0.002
298.15 K, x1 = 0.6103	1146.3 ± 1	1.49 ± 0.002
298.15 K, x1 = 0.6923	1174.2 ± 1	1.497 ± 0.002
298.15 K, x1 = 0.8037	1208.4 ± 1.1	1.506 ± 0.002
298.15 K, x1 = 0.9129	–	1.514 ± 0.002
303.15 K, x1 = 0.0972	881.7 ± 1	1.417 ± 0.002
303.15 K, x1 = 0.2125	959.1 ± 1	1.438 ± 0.002
303.15 K, x1 = 0.3041	1010.9 ± 1	1.452 ± 0.002
303.15 K, x1 = 0.3849	1051.2 ± 1	1.463 ± 0.002
303.15 K, x1 = 0.4929	1098.4 ± 1	1.476 ± 0.002
303.15 K, x1 = 0.6103	1143.3 ± 1	1.488 ± 0.002
303.15 K, x1 = 0.6923	1171.2 ± 1	1.496 ± 0.002
303.15 K, x1 = 0.8037	1205.4 ± 1.1	1.505 ± 0.002
303.15 K, x1 = 0.9129	–	1.513 ± 0.002
308.15 K, x1 = 0.0972	878 ± 1	1.415 ± 0.002
308.15 K, x1 = 0.2125	955 ± 1	1.437 ± 0.002
308.15 K, x1 = 0.3041	1007 ± 1	1.45 ± 0.002
308.15 K, x1 = 0.3849	1048 ± 1	1.461 ± 0.002
308.15 K, x1 = 0.4929	1095 ± 1	1.474 ± 0.002
308.15 K, x1 = 0.6103	1140 ± 1	1.487 ± 0.002
308.15 K, x1 = 0.6923	1168 ± 1	1.495 ± 0.002
308.15 K, x1 = 0.8037	1202 ± 1	1.504 ± 0.002
308.15 K, x1 = 0.9129	1232 ± 1	1.512 ± 0.002
313.15 K, x1 = 0.0972	874 ± 1	1.413 ± 0.002
313.15 K, x1 = 0.2125	952 ± 1	1.435 ± 0.002
313.15 K, x1 = 0.3041	1004 ± 1	1.45 ± 0.002
313.15 K, x1 = 0.3849	1044 ± 1	1.461 ± 0.002
313.15 K, x1 = 0.4929	1092 ± 1	1.474 ± 0.002
313.15 K, x1 = 0.6103	1137 ± 1	1.486 ± 0.002
313.15 K, x1 = 0.6923	1165 ± 1	1.495 ± 0.002
313.15 K, x1 = 0.8037	1199 ± 1	1.503 ± 0.002
313.15 K, x1 = 0.9129	–	1.51 ± 0.002
